According to patent publication US20210308101A1, “METHODS OF TREATING FIBROMYALGIA” (Aptinyx Inc., priority 2019, published 2021):
“Also recorded” adds a separate entry of the source.

Key:
[1] = tested on: subjects with fibromyalgia; test: Numeric Pain Rating Scale (NPRS) daily pain scores; assay type: in vivo, human
Description: As used herein, “NPRS” is Numeric Pain Rating Scale Score. Numeric pain rating scale is a unidimensional segmented numeric version of the visual analog scale. The NPRS score assessing average pain intensity in the past 24 hours are based on an 11-point numerical rating scale/Likert scale ranging from 0 to 10. Where 0 represents no pain and 10 is the worst pain imaginable. Individual one-time scores were collected at the Screening and Day 1 visits on the CRF in order to confirm eligibility status for the subjects. These CRF pain scores were not used in the analysis tables. Instead, the pain scores collected by eRT via phone data collection were used in the analysis tables. eRT collected a variable if the call was completed per the requirements. […] The daily pain scores were summarized using the mean and were calculated for the analysis visits at Baseline and Weeks 1-7. There needed to be at least 4 daily pain scores collected within a post-baseline analysis visit in order to calculate the mean pain score for that visit. Each mean analysis visit score took on values ranging from 0 to 10 and was rounded off by one number after the decimal point. No missing data imputations were used for these individual values or computed means. The actual values/means, changes from baseline, and changes from treatment periods at each analysis visit were summarized using descriptive statistics. Additionally, the treatment group comparisons were analyzed using the paired t-test and nonparametric Wilcoxon signed-rank test. All data collected and derived were presented in subject listings. The pain scores collected by eRT and the CRF were presented in separate subject listings.
The collection methods of the NPRS score assessing worst pain intensity in the past 24 hours were the same as the efficacy data for the NPRS score assessing average pain intensity in the past 24 hours and was analyzed using the same techniques. The worst pain score must be greater than or equal to the average pain score for each assessment. In the event a worst pain score was less than the average pain, both pain scores were removed from calculating the mean weekly analysis visit scores. These collected pain scores were presented in the subject listings with a note that they would be removed from the analysis tables.
The timeline of events in the study are depicted in FIG. 1A. The study included up to a 30 day screening period, to confirm the diagnosis, assess eligibility, and complete the baseline magnetic resonance imaging (MRI). This was a single-blind, exploratory, placebo-controlled pilot study in which eligible subjects received 2 weeks of daily oral (QD) placebo, 2 weeks of NYX-2925 20 mg PO daily (low dose), 2 weeks of NYX-2925 200 mg PO daily (high dose), followed by a 1 week follow-up period. An MRI was conducted during the screening period, during the last week of the placebo period, during the last week of the NYX-2925 20 mg administration period, and during the last week of the NYX-2925 200 mg administration period. Study visits occurred during screening, then at day one and weeks 1, 2, 3, 4, 5, 6, and 7. An optional MRI was completed at the end of the follow-up period for consenting subjects. Study participants and study staff responsible for interpreting MRI results were blinded to the study drug administration.

[2] = tested on: resting state functional connectivity; test: rs-fcMRI seed-based region of interest functional connectivity; assay type: in vivo, human
Source text: Resting state functional connectivity magnetic resonance imaging (rs-fcMRI) also uses noninvasive techniques to map blood flow in the brain. In rs-fcMRI, neural connections between different areas of the brain are identified by mapping regions of synchronous blood flow fluctuations. Synchronous blood fluctuations are examined to determine the strength of neural connections between different brain regions.
Resting 6-minute scans, with subjects resting comfortably in the scanner with eyes open and fixated on a crosshair, were completed at the beginning of the scan session. Whole brain BOLD rs-fcMRI data were collected following same parameters used for evoked fMRI. Physiological data were also collected simultaneously with rs-fcMRI data, as cardiorespiratory fluctuations are known to influence rs-fcMRI intrinsic connectivity estimation within several brain networks
In order to quantify intrinsic brain connectivity, rs-fcMRI data were analyzed with both dual-regression ICA and seed-voxel approaches. These approaches are complementary, as they quantify intrinsic brain connectivity on a network level (dual regression probabilistic ICA) and a more specific region-focused level (seed-voxel).
Resting state functional connectivity MRI data were preprocessed and analyzed using statistical parametric mapping software package Version 12, the CONN functional connectivity toolbox, and the GIFT toolbar, all running on MATLAB Version 9.2 or later. Upon collection of rs-fcMRI data, physiological artifacts were first removed using a custom MATLAB algorithm and slice-time corrected using Functional Magnetic Resonance Imaging of the Brain Software Library software. Preprocessing steps included motion correction, realignment, registration, normalization to standard Montreal Neurological Institute template, and smoothing (full width at half maximum Gaussian kernel of 6 or 8 mm).
Seed to whole brain functional connectivity analysis was performed using the CONN toolbox, Version 15, running on […]. […] Spheres were created (5 mm radius) around peak voxel coordinates and white matter, CSF, and motion parameters were used as covariates of no interest. Seed-based analyses were also performed using regions of interest assessed with single voxel ^1H-MRS regions showing NYX-2925 effects on Glx level. Data were band pass filtered (0.01 to 0.1 Hz) to remove linear drifts and high frequency noise. First level analysis correlated the time course from the seed to all brain voxels, creating connectivity maps for each seed region. These connectivity maps were passed up to group-level analyses comparing differences in connectivity at the visits of interest in statistical parametric mapping.
Several analyses were conducted with the fMRI resting state and task data. Results were assessed by: 1) a primary analysis, where a finding was deemed significant with a corrected cluster level p<0.05, derived from an uncorrected voxel-wise p<0.001, and 2) an exploratory analysis, where a finding was deemed significant with an uncorrected voxel-wise p<0.005 and having a cluster greater than or equal to 80 contiguous voxels. Results that met significance in the primary analyses had connectivity values extracted and imported into SPSS v25 where paired t-tests were performed to assess for potential outliers contributing to the finding. Remaining data were then correlated with clinical measures using parametric bivariate Pearson correlations. Results were deemed significant at p<0.05.
Seed-based, region of interest, functional connectivity analyses were performed (n=18) for regions that were used to acquire ^1H-MRS data: dACC, perigenual anterior cingulate cortex (pgACC), right anterior insula cortex, right posterior insula cortex, precuneus, thalamus, and medial prefrontal cortex.

[3] = week six, after four weeks of NYX-2925, scale 0 to 10, n=19
[4] = exploratory, placebo visit to NYX-2925 200 mg visit

CC(C)C(=O)N1CCC[C@]12CN([C@H](C(N)=O)[C@@H](C)O)C2=O [NYX-2925, (2S, 3R)-3-hydroxy-2-((R)-5-isobutyryl-1-oxo-2,5-diazaspiro[3.4]octan-2-yl)butanamide]
average daily pain, change from baseline ([1]; NYX-2925 20 mg): reductions from baseline
worse daily pain, change from baseline ([1]; NYX-2925 20 mg): reductions from baseline
NPRS average pain score, mean change ([1]; Week 2 (placebo) to Week 4 (NYX-2925 20 mg PO QD)): −0.10
NPRS average pain score, mean change ([1]; Week 2 (placebo) to Week 6 (NYX-2925 200 mg PO QD), p=0.0072): −0.66
NPRS worst pain score, mean change ([1]; Week 2 (placebo) to Week 6 (NYX-2925 200 mg), p=0.0360): −0.61
Average daily pain score, reduction from baseline [1, 3]: 1.1 point
Worst daily pain score, reduction from baseline [1, 3]: 1.0 point
connectivity right anterior insula cortex seed - right ventral anterior thalamic nucleus ([2]; baseline visit to NYX-2925 200 mg visit, PFWE=0.018): decreased
connectivity right posterior insula cortex seed - dACC ([2]; exploratory analysis, placebo visit to NYX-2925 20 mg visit): decrease in connectivity
connectivity precuneus - right anterior insula and left dACC ([2]; exploratory, baseline visit to NYX-2925 20 mg visit): decreased
connectivity precuneus - right mid cingulate cortex ([2]; exploratory, placebo visit to NYX-2925 20 mg visit): Decreases in resting state functional connectivity
connectivity precuneus seed - right posterior/mid cingulate cortex [2, 4]: decreased
connectivity thalamus seed - right anterior prefrontal cortex and bilateral precuneus [2, 4]: decreases in connectivity
functional connectivity dACC seed - right posterior insula cortex ([2]; placebo to NYX-2925 20 mg, not meeting cluster level correction significance): decreased connectivity
functional connectivity pgACC seed - left precuneus/precentral gyrus ([2]; placebo visit to NYX-2925 20 mg visit, PFWE<0.00001): decreased
connectivity medial prefrontal cortex seed - right anterior prefrontal cortex and right mid cingulate cortex ([2]; placebo visit to NYX-2925 200 mg visit, PFWE=0.003 and 0.036): Decreases were also observed
functional connectivity pgACC seed - right inferior frontal gyrus ([2]; placebo visit to NYX-2925 200 mg visit, PFWE=0.008): decreased
connectivity of precuneus seed ([2]; primary analyses): no significant results
connectivity of right posterior insula cortex seed ([2]; primary analyses): no significant findings
connectivity thalamus seed - bilateral cuneus ([2]; primary analysis, baseline visit to NYX-2925 200 mg visit, PFWE<0.00001): significant decrease in resting state connectivity
functional connectivity of dACC seed to right superior temporal gyrus, left premotor/primary somatosensory cortex, right precuneus, left precentral gyrus/premotor cortex ([2]; primary analysis, placebo visit to NYX-2925 20 mg visit, PFWE 0.030-0.049): reduced connectivity; also recorded: decreased functional connectivity
connectivity medial prefrontal cortex seed - right anterior prefrontal/dorsolateral prefrontal cortex ([2]; primary, baseline visit to NYX-2925 200 mg visit, PFWE=0.001): Significant decreases in resting state connectivity
